Common to all, as to format: biochemical
The target in assay [1] is LCK (Homo sapiens, UniProt P06239). In words: Kinome profiling LCK. Conditions: for inhibition at 0.1 µM: 100 nM. The protocol:
(§1) . The kinome-wide selectivity was determined following the methods previously reported by Mohedas et al., ACS Chem Biol 2013, 8, 1291-1302 and Sanvitale et al., PLoS One 2013, 8, e62721.

Assay [2] concerns the target FMS (Homo sapiens, UniProt P07333). Description: Kinome profiling FMS. The conditions noted are these: read-out: Inhibitory activity FMS; for inhibition at 0.1 µM: 100 nM. On the procedure: as §1
The target in assay [3] is T1, MARK4 (Homo sapiens, UniProt Q96L34).
T1 sequence (Q96L34 1-752): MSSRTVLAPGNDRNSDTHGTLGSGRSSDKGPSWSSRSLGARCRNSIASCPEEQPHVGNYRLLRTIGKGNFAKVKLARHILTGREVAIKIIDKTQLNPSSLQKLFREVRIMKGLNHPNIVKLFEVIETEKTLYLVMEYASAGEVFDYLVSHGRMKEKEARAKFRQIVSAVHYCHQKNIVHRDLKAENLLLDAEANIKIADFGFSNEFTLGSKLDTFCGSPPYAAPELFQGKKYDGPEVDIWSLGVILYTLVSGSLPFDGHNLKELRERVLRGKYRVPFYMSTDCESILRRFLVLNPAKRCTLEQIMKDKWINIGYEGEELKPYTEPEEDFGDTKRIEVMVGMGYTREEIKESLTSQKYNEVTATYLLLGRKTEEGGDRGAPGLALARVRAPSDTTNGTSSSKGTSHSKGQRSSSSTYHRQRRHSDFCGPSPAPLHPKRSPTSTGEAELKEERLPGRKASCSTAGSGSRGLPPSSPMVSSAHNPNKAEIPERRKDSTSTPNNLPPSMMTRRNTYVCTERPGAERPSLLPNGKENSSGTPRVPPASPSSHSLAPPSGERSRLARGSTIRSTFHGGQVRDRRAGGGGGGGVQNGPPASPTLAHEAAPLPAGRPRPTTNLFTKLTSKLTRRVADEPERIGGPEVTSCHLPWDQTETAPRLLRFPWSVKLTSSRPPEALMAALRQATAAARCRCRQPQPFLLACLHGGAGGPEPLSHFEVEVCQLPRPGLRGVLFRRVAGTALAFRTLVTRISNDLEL
Description: Kinome profiling MARK4. The conditions noted are these: read-out: Inhibitory activity MARK4; for inhibition at 0.1 µM: 100 nM. On the procedure:
as §1

The target in assay [4] is BRAF (Homo sapiens, UniProt P15056). In words: Kinome profiling BRAF. Conditions: read-out: Inhibitory activity BRAF; for inhibition at 0.1 µM: 100 nM. On the procedure:
as §1

Assay [5] deals with AURORA-B (Homo sapiens, UniProt Q96GD4). In words: Kinome profiling AURORA-B. The conditions noted are these: read-out: Inhibitory activity AURORA-B; for inhibition at 0.1 µM: 100 nM. The protocol: as §1
AURORA-B, sequence (Q96GD4 whole entry): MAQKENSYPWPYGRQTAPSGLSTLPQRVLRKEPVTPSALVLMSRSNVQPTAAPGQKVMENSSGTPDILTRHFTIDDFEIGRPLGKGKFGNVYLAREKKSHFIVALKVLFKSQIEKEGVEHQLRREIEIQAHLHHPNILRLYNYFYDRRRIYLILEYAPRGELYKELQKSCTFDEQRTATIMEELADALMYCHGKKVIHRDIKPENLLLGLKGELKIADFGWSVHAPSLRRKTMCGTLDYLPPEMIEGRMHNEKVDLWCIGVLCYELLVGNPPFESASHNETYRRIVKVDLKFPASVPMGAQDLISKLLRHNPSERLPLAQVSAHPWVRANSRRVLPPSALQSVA
Assay [6] concerns the target CDK6/cyclinD3 (Homo sapiens, UniProt Q00534). Description: Kinome profiling CDK6/cyclinD3. The conditions noted are these: read-out: Inhibitory activity CDK6/cyclinD3; for inhibition at 0.1 µM: 100 nM. The protocol: as §1
Assay [7] concerns the target T2, MST2 (Homo sapiens, UniProt Q13188).
T2 sequence (Q13188 1-491): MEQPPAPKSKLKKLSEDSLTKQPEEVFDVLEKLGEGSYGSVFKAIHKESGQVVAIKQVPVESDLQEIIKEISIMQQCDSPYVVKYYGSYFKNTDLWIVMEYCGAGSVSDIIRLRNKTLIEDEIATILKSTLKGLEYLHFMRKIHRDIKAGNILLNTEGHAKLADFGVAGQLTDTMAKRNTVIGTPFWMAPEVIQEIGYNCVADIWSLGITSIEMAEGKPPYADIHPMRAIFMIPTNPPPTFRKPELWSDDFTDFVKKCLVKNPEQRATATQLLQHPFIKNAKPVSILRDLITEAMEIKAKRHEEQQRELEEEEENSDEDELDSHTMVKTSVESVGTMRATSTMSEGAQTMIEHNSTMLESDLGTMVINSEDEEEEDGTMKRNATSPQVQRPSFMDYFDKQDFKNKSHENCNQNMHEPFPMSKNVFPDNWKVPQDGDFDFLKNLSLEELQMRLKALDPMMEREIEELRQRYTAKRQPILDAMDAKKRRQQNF
Description: Kinome profiling MST2. The conditions noted are these: read-out: Inhibitory activity MST2; for inhibition at 0.1 µM: 100 nM. The protocol: as §1

Assay [8] has as its target T3, DCAMKL2 (Homo sapiens, UniProt Q8N568).
T3 sequence (Q8N568 1-766): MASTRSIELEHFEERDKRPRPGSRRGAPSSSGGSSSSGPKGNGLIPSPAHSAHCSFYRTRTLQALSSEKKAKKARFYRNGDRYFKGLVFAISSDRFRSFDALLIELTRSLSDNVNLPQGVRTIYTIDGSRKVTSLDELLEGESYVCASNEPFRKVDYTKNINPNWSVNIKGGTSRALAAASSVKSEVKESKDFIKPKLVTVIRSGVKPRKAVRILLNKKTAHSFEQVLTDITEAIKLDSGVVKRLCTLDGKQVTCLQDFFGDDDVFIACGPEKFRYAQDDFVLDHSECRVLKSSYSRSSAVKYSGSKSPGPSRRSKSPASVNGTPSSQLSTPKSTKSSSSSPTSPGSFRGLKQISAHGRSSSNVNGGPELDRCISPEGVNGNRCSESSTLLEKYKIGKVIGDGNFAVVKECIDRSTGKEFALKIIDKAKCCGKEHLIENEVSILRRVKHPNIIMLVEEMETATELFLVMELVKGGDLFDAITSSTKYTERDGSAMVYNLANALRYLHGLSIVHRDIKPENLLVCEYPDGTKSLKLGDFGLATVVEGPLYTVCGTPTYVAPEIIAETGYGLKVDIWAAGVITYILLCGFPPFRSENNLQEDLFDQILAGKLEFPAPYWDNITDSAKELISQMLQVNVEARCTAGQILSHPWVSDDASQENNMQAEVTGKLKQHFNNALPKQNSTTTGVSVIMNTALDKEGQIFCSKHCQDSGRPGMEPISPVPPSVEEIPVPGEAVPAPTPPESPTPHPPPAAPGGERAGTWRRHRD
In words: Kinome profiling DCAMKL2. Conditions: read-out: Inhibitory activity DCAMKL2; for inhibition at 0.1 µM: 100 nM. The protocol: as §1

Setting [9] is: read-out: Inhibitory activity LCK.
Setting [10] is: Table 4, read-out: Inhibitory Activity LCK.

SMILES strings stand for the structures. Where two headings read alike, the source gives them in different places.

BRAF, sequence (P15056 whole entry): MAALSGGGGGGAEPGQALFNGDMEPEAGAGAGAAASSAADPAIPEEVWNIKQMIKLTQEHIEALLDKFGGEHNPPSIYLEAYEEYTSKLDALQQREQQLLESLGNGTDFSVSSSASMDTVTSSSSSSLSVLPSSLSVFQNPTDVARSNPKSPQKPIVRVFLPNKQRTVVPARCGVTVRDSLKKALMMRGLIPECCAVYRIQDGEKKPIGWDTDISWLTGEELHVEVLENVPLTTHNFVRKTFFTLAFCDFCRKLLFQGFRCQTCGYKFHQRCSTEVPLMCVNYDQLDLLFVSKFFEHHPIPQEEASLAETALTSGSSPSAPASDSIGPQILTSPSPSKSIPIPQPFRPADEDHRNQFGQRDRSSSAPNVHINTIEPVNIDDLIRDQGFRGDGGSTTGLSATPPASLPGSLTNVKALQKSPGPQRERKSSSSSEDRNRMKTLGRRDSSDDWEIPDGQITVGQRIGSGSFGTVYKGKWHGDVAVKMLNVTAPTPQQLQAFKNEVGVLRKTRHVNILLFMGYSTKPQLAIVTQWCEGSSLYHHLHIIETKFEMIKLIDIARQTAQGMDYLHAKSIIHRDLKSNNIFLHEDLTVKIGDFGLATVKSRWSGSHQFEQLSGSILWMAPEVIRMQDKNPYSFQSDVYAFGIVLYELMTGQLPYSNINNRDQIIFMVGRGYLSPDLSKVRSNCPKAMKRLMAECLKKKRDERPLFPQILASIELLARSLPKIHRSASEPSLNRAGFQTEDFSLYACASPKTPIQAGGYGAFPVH
FMS, sequence (P07333 20-972): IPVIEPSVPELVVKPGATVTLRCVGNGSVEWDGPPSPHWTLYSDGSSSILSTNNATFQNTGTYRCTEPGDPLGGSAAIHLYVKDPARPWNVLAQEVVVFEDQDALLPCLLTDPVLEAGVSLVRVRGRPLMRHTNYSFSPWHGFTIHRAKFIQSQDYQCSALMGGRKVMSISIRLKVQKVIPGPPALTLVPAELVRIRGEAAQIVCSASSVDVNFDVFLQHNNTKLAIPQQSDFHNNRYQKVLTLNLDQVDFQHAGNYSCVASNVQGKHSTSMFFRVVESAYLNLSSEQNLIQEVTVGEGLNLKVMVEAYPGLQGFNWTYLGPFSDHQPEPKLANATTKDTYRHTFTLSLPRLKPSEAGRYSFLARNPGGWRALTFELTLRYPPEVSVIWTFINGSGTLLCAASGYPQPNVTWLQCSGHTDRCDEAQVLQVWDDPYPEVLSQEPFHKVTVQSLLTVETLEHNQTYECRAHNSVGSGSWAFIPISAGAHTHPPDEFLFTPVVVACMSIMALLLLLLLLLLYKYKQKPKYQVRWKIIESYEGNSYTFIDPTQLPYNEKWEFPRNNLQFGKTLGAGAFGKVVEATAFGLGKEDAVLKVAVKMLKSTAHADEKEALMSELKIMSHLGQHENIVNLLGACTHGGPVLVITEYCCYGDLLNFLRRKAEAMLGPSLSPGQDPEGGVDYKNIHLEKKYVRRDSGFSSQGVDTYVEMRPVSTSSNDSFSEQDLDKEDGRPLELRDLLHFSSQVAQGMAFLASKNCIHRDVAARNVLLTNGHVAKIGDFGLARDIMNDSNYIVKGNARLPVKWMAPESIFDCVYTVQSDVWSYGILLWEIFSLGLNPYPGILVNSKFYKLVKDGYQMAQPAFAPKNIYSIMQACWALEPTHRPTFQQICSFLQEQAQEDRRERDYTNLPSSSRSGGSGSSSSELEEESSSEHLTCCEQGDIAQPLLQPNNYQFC
CDK6/cyclinD3, sequence (Q00534 whole entry): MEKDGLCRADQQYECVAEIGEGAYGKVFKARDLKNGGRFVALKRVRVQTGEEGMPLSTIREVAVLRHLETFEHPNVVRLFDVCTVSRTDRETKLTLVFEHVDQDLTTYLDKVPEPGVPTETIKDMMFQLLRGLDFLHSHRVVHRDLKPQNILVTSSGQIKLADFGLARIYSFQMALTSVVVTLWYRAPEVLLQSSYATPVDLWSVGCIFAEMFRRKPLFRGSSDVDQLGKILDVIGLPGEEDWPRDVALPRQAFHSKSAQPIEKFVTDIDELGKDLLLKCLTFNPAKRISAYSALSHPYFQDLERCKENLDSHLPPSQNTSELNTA
CDK6/cyclinD3, sequence (P30281 whole entry partner): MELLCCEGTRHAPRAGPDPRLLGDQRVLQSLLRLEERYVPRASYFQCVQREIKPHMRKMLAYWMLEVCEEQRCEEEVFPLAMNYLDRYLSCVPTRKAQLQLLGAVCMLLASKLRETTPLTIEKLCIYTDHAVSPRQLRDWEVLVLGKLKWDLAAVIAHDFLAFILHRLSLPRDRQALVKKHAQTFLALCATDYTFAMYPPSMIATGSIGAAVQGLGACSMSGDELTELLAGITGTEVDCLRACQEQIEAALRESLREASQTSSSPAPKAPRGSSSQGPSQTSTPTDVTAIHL
LCK, sequence (P06239 whole entry): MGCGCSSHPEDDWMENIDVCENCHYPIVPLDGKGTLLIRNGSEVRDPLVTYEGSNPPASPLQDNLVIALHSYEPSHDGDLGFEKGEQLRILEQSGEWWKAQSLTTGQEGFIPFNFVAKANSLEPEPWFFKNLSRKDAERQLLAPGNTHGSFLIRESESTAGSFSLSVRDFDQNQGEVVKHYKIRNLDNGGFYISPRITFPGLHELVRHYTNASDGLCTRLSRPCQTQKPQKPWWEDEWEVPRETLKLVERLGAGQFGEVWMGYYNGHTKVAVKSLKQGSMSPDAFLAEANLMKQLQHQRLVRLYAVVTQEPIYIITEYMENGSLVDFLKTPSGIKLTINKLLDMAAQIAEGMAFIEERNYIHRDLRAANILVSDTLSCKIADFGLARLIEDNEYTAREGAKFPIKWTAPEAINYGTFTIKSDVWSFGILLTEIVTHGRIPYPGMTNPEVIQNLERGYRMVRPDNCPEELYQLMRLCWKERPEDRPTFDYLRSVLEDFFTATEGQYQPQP

Turning to `COc1cc(-c2cc(-c3ccc(N4CCNCC4)cc3)cnc2N)cc(OC)c1OC` [Compound 15, 5-(4-(piperazin-1-yl)phenyl)-3-(3,4,5-trimethoxyphenyl)pyridin-2-amine], the inhibition at 0.1 µM in assay [1] (setting [9]) was found to be 65%; in assay [2] it was 23%; in assay [3], 5%; in assay [4], 8%; in assay [5], 3%; in assay [6], 3%. Further, the values for the inhibition at 0.1 µM in assay [7] and in assay [8] were 3% and -1%, respectively. Besides, the inhibition at 1 µM in assay [1] (setting [9]) amounted to 86%; in assay [2] it was 65%; in assay [3], 40%; in assay [4] it was 27%; in assay [5] it was 8%; in assay [6], 6%. Moreover, the figures for the inhibition at 1 µM in assay [7] and in assay [8] were 4% and 3%, respectively.

In the case of `COc1cc(-c2cc(-c3ccc(N4CCNCC4)cc3)cnc2C)cc(OC)c1OC` [Compound 10, 1-(4-(6-methyl-5-(3,4,5-trimethoxyphenyl)pyridin-3-yl)phenyl)piperazine], the inhibition at 0.1 µM stood at 21% in assay [1] (setting [10]); 21% in assay [1] (setting [9]); 5% in assay [2]; 1% in assay [3]; 0% in assay [4]; 2% in assay [5]. Moreover, the inhibition at 0.1 µM was determined as 3% in assay [6], 0% in assay [7] and 1% in assay [8]. Besides, the inhibition at 1 µM in assay [1] (setting [10]) came out at 65%; in assay [1] (setting [9]) it was 65%; in assay [2], 33%; in assay [3] it was 2%; in assay [4], 1%; in assay [5] it was 3%. The inhibition at 1 µM in assay [6] was determined as 1%; in assay [7] it was 1%; in assay [8], 0%.

Source of the values: patent US20170190705A1, “Compositions and Methods for Inhibiting BMP” (THE BRIGHAM AND WOMAN'S HOSPITAL, INC., priority 2014, published 2017).
